Test results taken from ChEMBL document CHEMBL5331134, “Identification of Brain-Penetrant ATP-Competitive mTOR Inhibitors for CNS Syndromes” (J Med Chem, 2023).
Values after ≈ are worked out from the molar mass of the structure shown. One block for each molecule: values may come before it.

Assays:
[1] = Metabolic stability in rat liver microsomes assessed as intrinsic clearance at 1 uM incubated for 30 mins in presence of NADPH by LC-MS/MS analysis; format: ADME, Microsome; details: read-out: CLH
[2] = Genotoxicity in human TK6 cells assessed as micronuclei formation in absence of S9 fraction by micronucleus test; format: toxicity, cell-based
Cytochrome P450 2D6 = Cytochrome P450 2D6 (Homo sapiens, UniProt P10635); test: Inhibition of CYP2D6 (unknown origin); format: ADME
Chain of Cytochrome P450 2D6 (P10635 whole entry): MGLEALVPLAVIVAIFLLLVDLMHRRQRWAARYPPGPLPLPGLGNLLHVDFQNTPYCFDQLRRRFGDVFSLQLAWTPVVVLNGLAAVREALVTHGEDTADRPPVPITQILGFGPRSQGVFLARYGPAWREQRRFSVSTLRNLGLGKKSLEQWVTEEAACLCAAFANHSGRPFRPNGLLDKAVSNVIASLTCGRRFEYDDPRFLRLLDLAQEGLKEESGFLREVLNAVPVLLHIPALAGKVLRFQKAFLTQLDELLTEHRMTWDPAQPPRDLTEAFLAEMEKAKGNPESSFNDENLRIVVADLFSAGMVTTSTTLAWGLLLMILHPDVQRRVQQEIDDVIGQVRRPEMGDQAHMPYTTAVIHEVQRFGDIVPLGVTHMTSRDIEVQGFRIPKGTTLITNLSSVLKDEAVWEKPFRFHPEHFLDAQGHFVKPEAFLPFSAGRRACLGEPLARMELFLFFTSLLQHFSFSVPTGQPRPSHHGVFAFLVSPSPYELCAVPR

[3] = Half life in Sprague-Dawley rat at 3 mg/kg, po and 1 mg/kg, iv measured upto 24 hrs by HPLC-MS analysis; format: ADME, organism-based; details: in vivo
[4] = biological target: 3',5'-cyclic-AMP phosphodiesterase 4D (Homo sapiens, UniProt Q08499); test: Inhibition of PDE4D (unknown origin)
Chain of 3',5'-cyclic-AMP phosphodiesterase 4D (Q08499 whole entry): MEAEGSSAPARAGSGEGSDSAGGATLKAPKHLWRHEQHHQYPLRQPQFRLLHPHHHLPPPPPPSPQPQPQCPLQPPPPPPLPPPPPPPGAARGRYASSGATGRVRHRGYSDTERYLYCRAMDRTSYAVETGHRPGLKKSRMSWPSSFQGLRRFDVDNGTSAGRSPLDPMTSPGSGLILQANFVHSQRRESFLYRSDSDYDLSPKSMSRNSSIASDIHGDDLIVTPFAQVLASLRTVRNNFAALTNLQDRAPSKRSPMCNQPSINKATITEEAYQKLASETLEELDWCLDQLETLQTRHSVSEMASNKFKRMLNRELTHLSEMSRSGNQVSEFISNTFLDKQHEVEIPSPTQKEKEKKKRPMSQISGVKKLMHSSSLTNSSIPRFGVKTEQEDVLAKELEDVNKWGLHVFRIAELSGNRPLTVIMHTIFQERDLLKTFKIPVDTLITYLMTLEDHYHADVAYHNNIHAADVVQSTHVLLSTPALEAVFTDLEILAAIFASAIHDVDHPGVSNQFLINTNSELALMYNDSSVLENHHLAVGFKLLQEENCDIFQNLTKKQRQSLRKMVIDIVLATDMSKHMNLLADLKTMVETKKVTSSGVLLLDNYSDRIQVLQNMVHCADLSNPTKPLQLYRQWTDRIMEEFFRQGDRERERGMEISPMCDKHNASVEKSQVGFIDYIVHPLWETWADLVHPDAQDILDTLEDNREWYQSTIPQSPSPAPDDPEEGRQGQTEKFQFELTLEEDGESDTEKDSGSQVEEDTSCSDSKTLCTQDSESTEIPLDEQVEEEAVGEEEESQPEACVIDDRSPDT

[5] = Apparent permeability across apical to basolateral side in MDCK-MDR1 cells; format: ADME, cell-based, Canis lupus familiaris; details: dog
[6] = Tmax in Sprague-Dawley rat at 3 mg/kg, po and 1 mg/kg, iv measured upto 24 hrs by HPLC-MS analysis; format: ADME, organism-based; details: in vivo
[7] = Genotoxicity in human TK6 cells assessed as micronuclei formation by micronucleus test; format: toxicity, cell-based
[8] = Ratio of drug concentration in brain to plasma in C57BL/6 mouse at 30 mg/kg, po measured at 1 hr; format: ADME, organism-based; details: brain and plasma, read-out: BPR
[9] = Solubility of compound at pH 6.8; format: physicochemical; details: buffer
[10] = Ratio of drug concentration in brain to plasma in C57BL/6 mouse at 30 mg/kg, po measured at 3 hrs; format: ADME, organism-based; details: read-out: BPR
[11] = AUC(0 to t) in Sprague-Dawley rat at 3 mg/kg, po measured upto 24 hrs by HPLC-MS analysis; format: ADME, organism-based; design: dose 3 mg/kg, time < 24 hrs, route po; details: in vivo
[12] = Half life in C57BL/6 mouse at 1 mg/kg, iv and 3 mg/kg, ip measured upto 24 hrs by HPLC-MS analysis; format: ADME, organism-based; details: in vivo
[13] = Plasma protein binding in C57BL/6 mouse plasma at 5 uM measured for 4 hrs by equilibrium dialysis method based LC/MS/MS analysis; format: ADME, cell-free; details: read-out: PPB (converted)
[14] = Cmax in Sprague-Dawley rat at 3 mg/kg, po measured upto 24 hrs by HPLC-MS analysis; format: ADME, organism-based; design: dose 3 mg/kg, time < 24 hrs, route po; details: in vivo
[15] = Drug concentration in C57BL/6 mouse brain at 30 mg/kg, po measured after 24 hrs; format: ADME, organism-based; details: read-out: Ct
[16] = Phototoxicity against mouse BALB/3T3 clone A31 cells assessed as reduction in cell viability incubated for 1 hr followed by irradiated with 5 J/cm^2 of light dose measured after 24 hrs by neutral red uptake assay; format: toxicity, cell-based; details: balb/3t3 clone a31, 1 h
[17] = Drug concentration in C57BL/6 mouse brain at 10 mg/kg, po measured after 3 hrs; format: ADME, organism-based; details: read-out: Ct
[18] = Apparent permeability across basolateral to apical side in MDCK-MDR1 cells; format: ADME, cell-based, Canis lupus familiaris; details: dog
[19] = Drug concentration in C57BL/6 mouse plasma at 10 mg/kg, po measured after 1 hr; format: ADME, organism-based
[20] = Genotoxicity in human TK6 cells assessed as micronuclei formation in presence of S9 fraction by micronucleus test; format: toxicity, subcellular
[21] = biological target: Phosphatidylinositol 4,5-bisphosphate 3-kinase catalytic subunit beta isoform (Homo sapiens, UniProt P42338); test: Inhibition of PI3Kbeta (unknown origin)
Chain of Phosphatidylinositol 4,5-bisphosphate 3-kinase catalytic subunit beta isoform (P42338 whole entry, canonical isoform): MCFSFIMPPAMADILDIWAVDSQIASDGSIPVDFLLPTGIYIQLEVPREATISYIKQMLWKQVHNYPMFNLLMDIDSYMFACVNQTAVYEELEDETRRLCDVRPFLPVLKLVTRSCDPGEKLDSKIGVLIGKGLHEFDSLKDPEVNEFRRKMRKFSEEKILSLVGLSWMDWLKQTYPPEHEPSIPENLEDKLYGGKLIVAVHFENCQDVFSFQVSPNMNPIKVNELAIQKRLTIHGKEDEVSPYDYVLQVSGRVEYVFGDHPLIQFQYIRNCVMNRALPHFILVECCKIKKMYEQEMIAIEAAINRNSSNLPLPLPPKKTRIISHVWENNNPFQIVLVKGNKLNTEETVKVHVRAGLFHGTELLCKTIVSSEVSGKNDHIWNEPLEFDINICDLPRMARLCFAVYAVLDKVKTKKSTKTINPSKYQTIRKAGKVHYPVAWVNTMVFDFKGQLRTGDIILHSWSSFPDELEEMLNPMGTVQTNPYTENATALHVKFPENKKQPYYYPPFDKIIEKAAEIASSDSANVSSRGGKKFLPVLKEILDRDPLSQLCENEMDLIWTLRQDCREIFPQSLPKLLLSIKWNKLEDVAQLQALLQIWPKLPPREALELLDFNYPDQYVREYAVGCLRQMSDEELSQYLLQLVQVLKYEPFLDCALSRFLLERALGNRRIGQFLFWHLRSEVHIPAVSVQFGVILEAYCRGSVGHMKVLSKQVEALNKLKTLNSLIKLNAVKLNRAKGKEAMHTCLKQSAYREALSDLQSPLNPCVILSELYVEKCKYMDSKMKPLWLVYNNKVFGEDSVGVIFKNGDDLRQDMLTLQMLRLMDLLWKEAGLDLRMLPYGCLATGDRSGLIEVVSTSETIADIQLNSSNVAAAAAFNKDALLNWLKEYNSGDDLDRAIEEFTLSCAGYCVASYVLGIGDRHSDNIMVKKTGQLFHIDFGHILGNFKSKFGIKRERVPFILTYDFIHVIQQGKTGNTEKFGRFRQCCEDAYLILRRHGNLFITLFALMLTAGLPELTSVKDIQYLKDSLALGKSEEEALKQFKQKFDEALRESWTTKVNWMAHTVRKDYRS

[22] = Ratio of drug concentration in brain to plasma in Sprague-Dawley rat at 3 mg/kg, po measured at 1 hr by HPLC-MS analysis; format: ADME, organism-based; details: brain and plasma, read-out: BPR
Cytochrome P450 2C9 = Cytochrome P450 2C9 (Homo sapiens, UniProt P11712); test: Inhibition of CYP2C9 (unknown origin); format: ADME
Chain of Cytochrome P450 2C9 (P11712 whole entry): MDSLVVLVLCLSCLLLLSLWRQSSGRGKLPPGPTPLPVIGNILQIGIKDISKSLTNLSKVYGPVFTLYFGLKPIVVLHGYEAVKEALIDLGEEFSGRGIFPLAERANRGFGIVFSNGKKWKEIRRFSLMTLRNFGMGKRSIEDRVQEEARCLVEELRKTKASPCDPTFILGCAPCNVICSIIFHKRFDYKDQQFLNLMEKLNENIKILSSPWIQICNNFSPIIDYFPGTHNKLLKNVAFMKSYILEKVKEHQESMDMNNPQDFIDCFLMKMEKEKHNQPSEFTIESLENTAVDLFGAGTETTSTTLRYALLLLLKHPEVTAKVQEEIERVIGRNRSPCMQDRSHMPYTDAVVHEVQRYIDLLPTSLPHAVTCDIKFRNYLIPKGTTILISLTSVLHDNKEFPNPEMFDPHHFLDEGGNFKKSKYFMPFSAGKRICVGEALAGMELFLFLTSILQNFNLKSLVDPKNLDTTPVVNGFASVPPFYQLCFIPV

[23] = MRT(0 to t) in Sprague-Dawley rat at 3 mg/kg, po and 1 mg/kg, iv measured upto 24 hrs by HPLC-MS analysis; format: ADME, organism-based; details: in vivo
[24] = Ratio of drug concentration in brain to plasma in C57BL/6 mouse at 30 mg/kg, po measured at 24 hrs; format: ADME, organism-based; details: brain and plasma, read-out: BPR
[25] = MRT(0 to t) in C57BL/6 mouse at 1 mg/kg, iv and 3 mg/kg, ip measured upto 24 hrs by HPLC-MS analysis; format: ADME, organism-based; details: in vivo
[26] = Drug concentration in C57BL/6 mouse brain at 10 mg/kg, po measured after 1 hr; format: ADME, organism-based; details: read-out: Ct
[27] = Ratio of drug concentration in brain to plasma in Sprague-Dawley rat at 1 mg/kg, iv measured at 1 hr by HPLC-MS analysis; format: ADME, organism-based; details: brain and plasma, read-out: BPR
[28] = AUC(0 to t) in C57BL/6 mouse at 1 mg/kg, iv measured upto 24 hrs by HPLC-MS analysis; format: ADME, organism-based; design: time < 24 hrs, dose 1 mg/kg, route iv; details: in vivo
[29] = Plasma protein binding in Sprague-Dawley rat at 5 uM measured for 4 hrs by equilibrium dialysis method based LC/MS/MS analysis; format: ADME, cell-free; details: read-out: PPB (converted)
[30] = Volume of distribution at steady state in Sprague-Dawley rat at 3 mg/kg, po and 1 mg/kg, iv measured upto 24 hrs by HPLC-MS analysis; format: ADME, organism-based; details: in vivo
[31] = Metabolic stability in mouse liver microsomes assessed as intrinsic clearance at 1 uM incubated for 30 mins in presence of NADPH by LC-MS/MS analysis; format: ADME, Microsome; details: read-out: CLH
[32] = Protein binding in Sprague-Dawley rat brain at 5 uM measured for 4 hrs by equilibrium dialysis method based LC/MS/MS analysis; format: ADME, tissue-based; details: read-out: PB (converted)
[33] = Drug concentration in C57BL/6 mouse plasma at 10 mg/kg, po measured after 3 hrs; format: ADME, organism-based
Cytochrome P450 3A4 [34] = biological target: T1, Cytochrome P450 3A4 (Homo sapiens, UniProt P08684); test: Inhibition of CYP3A4 (unknown origin); format: ADME
T1 sequence (P08684 whole entry, canonical isoform): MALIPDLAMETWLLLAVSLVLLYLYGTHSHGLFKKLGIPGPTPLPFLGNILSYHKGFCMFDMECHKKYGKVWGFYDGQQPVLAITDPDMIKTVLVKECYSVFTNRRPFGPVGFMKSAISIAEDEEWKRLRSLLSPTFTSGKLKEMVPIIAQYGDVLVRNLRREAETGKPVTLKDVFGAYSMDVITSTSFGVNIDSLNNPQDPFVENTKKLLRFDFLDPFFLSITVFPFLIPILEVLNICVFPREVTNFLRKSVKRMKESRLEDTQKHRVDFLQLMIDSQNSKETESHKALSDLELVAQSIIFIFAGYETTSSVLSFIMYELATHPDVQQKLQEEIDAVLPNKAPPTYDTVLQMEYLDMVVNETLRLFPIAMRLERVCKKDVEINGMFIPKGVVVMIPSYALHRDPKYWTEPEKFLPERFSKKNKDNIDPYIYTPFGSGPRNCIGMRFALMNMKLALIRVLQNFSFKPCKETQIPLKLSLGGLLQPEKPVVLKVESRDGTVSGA

[35] = biological target: Phosphatidylinositol 4,5-bisphosphate 3-kinase catalytic subunit alpha isoform (Homo sapiens, UniProt P42336); test: Inhibition of PI3Kalpha (unknown origin)
Chain of Phosphatidylinositol 4,5-bisphosphate 3-kinase catalytic subunit alpha isoform (P42336 whole entry, canonical isoform): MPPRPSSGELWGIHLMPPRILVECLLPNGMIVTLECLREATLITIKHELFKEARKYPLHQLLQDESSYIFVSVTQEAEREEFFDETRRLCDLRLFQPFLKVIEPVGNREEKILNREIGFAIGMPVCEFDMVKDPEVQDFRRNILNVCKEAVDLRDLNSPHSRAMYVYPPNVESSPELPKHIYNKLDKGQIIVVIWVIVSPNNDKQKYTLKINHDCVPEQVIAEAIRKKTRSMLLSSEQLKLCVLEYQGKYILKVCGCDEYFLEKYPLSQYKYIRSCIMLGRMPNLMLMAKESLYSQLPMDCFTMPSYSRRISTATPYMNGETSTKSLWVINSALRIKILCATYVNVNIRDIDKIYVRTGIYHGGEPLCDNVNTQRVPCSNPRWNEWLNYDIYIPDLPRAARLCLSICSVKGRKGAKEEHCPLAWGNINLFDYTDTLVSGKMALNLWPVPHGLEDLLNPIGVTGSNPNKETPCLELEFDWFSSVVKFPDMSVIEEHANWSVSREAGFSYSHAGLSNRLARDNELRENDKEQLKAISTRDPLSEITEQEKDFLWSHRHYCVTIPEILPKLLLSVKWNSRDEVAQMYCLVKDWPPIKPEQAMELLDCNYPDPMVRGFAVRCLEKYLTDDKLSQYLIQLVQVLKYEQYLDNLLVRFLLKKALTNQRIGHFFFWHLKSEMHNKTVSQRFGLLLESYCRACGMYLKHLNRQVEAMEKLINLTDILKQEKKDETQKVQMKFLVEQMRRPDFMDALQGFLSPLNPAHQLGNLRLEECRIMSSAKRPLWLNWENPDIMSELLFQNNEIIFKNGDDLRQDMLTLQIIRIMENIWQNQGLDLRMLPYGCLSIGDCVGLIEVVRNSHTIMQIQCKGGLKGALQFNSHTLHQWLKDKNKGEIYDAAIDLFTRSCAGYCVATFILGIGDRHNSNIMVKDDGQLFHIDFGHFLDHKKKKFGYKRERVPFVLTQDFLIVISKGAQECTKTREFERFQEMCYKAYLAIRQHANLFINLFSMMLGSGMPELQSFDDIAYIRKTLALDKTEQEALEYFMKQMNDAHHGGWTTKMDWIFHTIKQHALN

[36] = Drug concentration in C57BL/6 mouse brain at 30 mg/kg, po measured after 1 hr; format: ADME, organism-based; details: read-out: Ct
[37] = Bioavailability in C57BL/6 mouse at 1 mg/kg, iv and 3 mg/kg, ip measured upto 24 hrs by HPLC-MS analysis; format: ADME, organism-based; details: in vivo
[38] = AUC(0 to t) in Sprague-Dawley rat at 1 mg/kg, iv measured upto 24 hrs by HPLC-MS analysis; format: ADME, organism-based; design: dose 1 mg/kg, time < 24 hrs, route iv; details: in vivo
[39] = Tmax in C57BL/6 mouse at 1 mg/kg, iv and 3 mg/kg, ip measured upto 24 hrs by HPLC-MS analysis; format: ADME, organism-based; details: in vivo
Cytochrome P450 3A4 [40] = biological target: T1, Cytochrome P450 3A4; test: Inhibition of CYP3A4 (unknown origin) assessed as Kobs; format: ADME
[41] = Drug concentration in C57BL/6 mouse plasma at 30 mg/kg, po measured after 24 hrs; format: ADME, organism-based
[42] = Ratio of drug concentration in brain to plasma in C57BL/6 mouse at 10 mg/kg, po measured at 1 hr; format: ADME, organism-based; details: brain and plasma, read-out: BPR
[43] = biological target: Serine/threonine-protein kinase mTOR (Mus musculus) (UniProt Q9JLN9); test: Inhibition of mTOR in Tsc1 knockout mouse neurons assessed as reduction in phosphorylated S6 level incubated for 4 hrs by Hoechst staining based immunofluorescence analysis; format: cell-based; details: Neuron, dose 5.0 µM

- microsomal CLint at 1 µM [1]: 27 µL/min/mg
- IC50 (Cytochrome P450 2D6): > 50 µM
- half-life [3]: 2.6 h
- IC50 [4]: 17 µM
- Papp A→B [5]: 415 nm/s
- Tmax [6]: 1.3 h
- Kp at 1 h [8]: 1.03
- solubility [9]: 0.18 mg/mL (≈ 456 µM)
- Kp at 3 h [10]: 0.65
- AUC(0-t) at 24 h [11]: 29.6 µM·h
- half-life [12]: 2 h
- fraction unbound at 4 h, 5 µM [13]: 0.065
- Cmax [14]: 5.05 µM
- concentration at 24 h [15]: 0.79 µM
- concentration at 3 h [17]: 1.11 µM
- Papp B→A [18]: 201 nm/s
- concentration at 1 h [19]: 2.48 µM
- IC50 [21]: > 10 µM
- Kp at 1 h [22]: 0.72
- IC50 (Cytochrome P450 2C9): > 50 µM
- MRT last at 24 h [23]: 2.3 h
- Kp at 24 h [24]: 0.7
- MRT last at 24 h [25]: 2.3 h
- concentration at 1 h [26]: 1.49 µM
- Kp at 1 h [27]: 0.48
- AUC(0-t) at 24 h ([28]; C57BL/6, mouse): 2.22 µM·h
- fraction unbound at 4 h, 5 µM [29]: 0.134
- Vdss [30]: 0.7 L/kg
- microsomal CLint at 1 µM [31]: 24 µL/min/mg
- fraction unbound at 4 h, 5 µM [32]: 0.035
- concentration at 3 h [33]: 2.16 µM
- IC50 (Cytochrome P450 3A4 [34]): > 50 µM
- IC50 [35]: > 10 µM
- concentration at 1 h [36]: 4.05 µM
- bioavailability [37]: 98%
- AUC(0-t) at 24 h [38]: 8.09 µM·h
- Tmax [39]: 0.4 h
- Kobs (Cytochrome P450 3A4 [40]): 0.032 min⁻¹
- concentration at 24 h [41]: 1.12 µM
- Kp at 1 h [42]: 0.6
- inhibition [43]: Dose-Dependent Effect
Compound: C[C@@H]1COCCN1c1cc(N2CCOC[C@@H]2C)nc2[nH]c(-c3ccccn3)nc12
- Activity [2]: Non-Toxic
- Activity [7]: Non-Toxic
- Activity [16]: Non-Toxic
- Activity [20]: Non-Toxic

- microsomal CLint at 1 µM [1]: 21 µL/min/mg
- IC50 (Cytochrome P450 2D6): > 50 µM
- half-life [3]: 3 h
- IC50 [4]: 6.3 µM
- Papp A→B [5]: 140 nm/s
- Tmax [6]: 1.5 h
- Kp at 1 h [8]: 1.29
- solubility [9]: 0.02 mg/mL (≈ 49.9 µM)
- Kp at 3 h [10]: 0.75
- AUC(0-t) at 24 h [11]: 6.45 µM·h
- half-life [12]: 2.7 h
- fraction unbound at 4 h, 5 µM [13]: 0.068
- Cmax [14]: 1.73 µM
- concentration at 24 h [15]: 4.65 µM
- concentration at 3 h [17]: 3.25 µM
- Papp B→A [18]: 120 nm/s
- concentration at 1 h [19]: 4.42 µM
- IC50 [21]: > 10 µM
- Kp at 1 h [22]: 0.33
- IC50 (Cytochrome P450 2C9): > 50 µM
- MRT last at 24 h [23]: 2.2 h
- Kp at 24 h [24]: 0.66
- MRT last at 24 h [25]: 3.4 h
- concentration at 1 h [26]: 4.27 µM
- Kp at 1 h [27]: 0.35
- AUCt ([28]; mouse, 24 h): 10.377 µM·h
- fraction unbound at 4 h, 5 µM [29]: 0.18
- Vdss [30]: 2.3 L/kg
- microsomal CLint at 1 µM [31]: 13 µL/min/mg
- fraction unbound at 4 h, 5 µM [32]: 0.086
- concentration at 3 h [33]: 5.53 µM
- IC50 (Cytochrome P450 3A4 [34]): > 50 µM
- IC50 [35]: > 10 µM
- concentration at 1 h [36]: 13.1 µM
- bioavailability [37]: 112%
- AUC(0-t) at 24 h [38]: 2.39 µM·h
- Tmax [39]: 1.5 h
- Kobs (Cytochrome P450 3A4 [40]): 0.021 min⁻¹
- concentration at 24 h [41]: 7.02 µM
- Kp at 1 h [42]: 0.97
- inhibition [43]: Dose-Dependent Effect
Compound: C[C@@H]1COCCN1c1cc(N2CCOC[C@@H]2C)nc2[nH]c(-c3cscn3)nc12
- Activity [2]: Non-Toxic
- Activity [7]: Non-Toxic
- Activity [16]: Toxic
- Activity [20]: Non-Toxic
